From US20230096103A1, “BERBERINE COMPOUNDS, BERBERINE COMPOSITIONS, AND METHODS FOR ADMINISTRATION THEREOF” (Dignity Health, priority 2020, published 2023)

Assays:
human α4β2-nAChR [1] = biological target: T1, human α4β2-nAChR (Homo sapiens, UniProt P17787+P43681); assay: Whole-cell patch-clamp of human α4β2-nAChR-mediated currents in transfected SH-EP1 cells; type: cell-based; details: for ACh-induced currents, peak current component / ACh-induced currents, steady-state component: 30 μM co-applied with 1 mM ACh; for 1 mM ACh-induced whole-cell currents: 1 min pretreatment
T1 construct: expressed in transfected cells; host or cells: human SH-EP1 cell line
Method: The effects of THPBs on α4β2-nAChR function were evaluated in vitro. Specifically, whole-cell patch-clamp recording technique was employed in α4β2-nAChRs transfected with a human SH-EP1 cell-line. FIG. 1A provides graphs illustrating the effects of a 1 min pre-treatment of 30 μM /-THP, d/-THB or /-SPD on 1 mM ACh-induced current in SH-EP1 cell line.
Thus, when THPBs are co-applied with an agonist, it affects receptor function after agonist opens channels.
(§1) The effects of THB-induced inhibition on the α4β2-nAChR function were evaluating using human α4β2-nAChRs (transfected to SH-EP1 cells) and rat α4β2-nAChRs natively expressed in VTA DA neurons. The 30 μM THB (without pretreatment) inhibited both types (human and rat) of α4β2-nAChR function, and compared to peak current, the steady-state current portion was more sensitive to THB (FIGS. 3A-3C).
The effect of different concentrations of THB on 1 mM ACh-induced whole-cell currents were further examined in human α4β2-nAChRs in SH-EP1 cells. […] The steady-state current was more sensitive to THB than the peak current.
FIG. 9A provides a graph of traces of co-application of THB6 on ACh-induced current. FIG. 9B provides a graph of traces of the effect of 1 min pretreatment of THB6 on ACh-induced current. […] Each bar of the bar graph presented in FIG. 9C represents the mean from 4 cells and vertical bars indicate +Se. A ^“*” was given to indicate p<0.05, while a ^“***” was given to indicate p<0.001 in FIG. 9C. Data was analyzed with One-Way ANOVA.
A dosage containing 100 μM THB6 compound was evaluated on human and mouse α4β2-nAChR-mediated currents. FIG. 10A provides a graph of traces of ACh-induced whole-cell currents in human α4β2-nAChRs transfected in human SH-EP1 cells. FIG. 10B provides a graph of traces of ACh-induced whole-cell currents in mouse α4β2-nAChRs transfected in VTA dopamine neurons. […] Each bar in the bar graph of FIG. 10C represents the mean from 4 cells and vertical bars indicate +SE. A ^“*” was given to indicate p<0.05. A ^“***” was given to indicate p<0.001 in FIG. 9C. Data was analyzed with One-Way ANOVA.

VTA DA neurons [2] = assay: Miniature EPSCs in VTA DA neuron, patch-clamp whole-cell recording in VTA slice; type: cell-based
Method: Thus, the effect of /-THP on this nicotine-induced EPSC enhancement was studied. […] Co-application of 10 μM /-THP abolished nicotine-induced enhancement of mEPSCs (see, FIGS. 5A and 5C).

male C57BL/6 mice = assay: Nicotine-induced conditioned place preference (CPP); type: in vivo, mouse
Method: A conventional biased CPP was performed on male C57BL/6 mice. Mice were put into two-compartment CPP apparatus (Med Associate Inc. VT) for accommodation once (20 min) a day for 3 days and for monitoring the preference to any specific side of compartment. Mice were divided into 3 groups (5 mice per group) and received 2 training sessions per day for 4 days.
When the mouse received a saline injection, it was placed into the opposite side for 20 min. […] Alternatively, the mice of the second group received saline injection and placed into the opposite side. The third group of mice (the I-THP only group) received /-THP i.p. injection (10 mg/Kg) and were placed into the least preferred side for 20 min. Alternatively, the mice received a saline injection and were placed into the opposite side.
On the 5th day, mice were tested for place preference by allowing free access to both conditioning compartments for 20 minutes. The foregoing 4-day training session was repeated on the 6th day. Mice of group 1 received their treatments without change. […] Alternatively, the mice of group 2 received a saline injection and then received a saline injection 5 min later. After the saline injection, the mice of group 2 were placed into the opposite chamber for 4 days. On the 10th day, the mice were tested for place preference for 20 min (See, FIG. 8).

human α4β2-nAChR [3] = biological target: T1, human α4β2-nAChR; assay: 3H-epibatidine (H-EBDN) binding and binding competition on heterologously expressed α4β2-nAChR; details: FIG. 2A
human α4β2-nAChR [4] = biological target: T1, human α4β2-nAChR; assay: 86Rb+ efflux assay, carbachol-induced response, heterologously expressed α4β2-nAChR; type: cell-based
mouse α4β2-nAChRs = biological target: T2, mouse α4β2-nAChRs (Mus musculus, UniProt O70174+Q9ERK7); assay: ACh-induced whole-cell currents of mouse α4β2-nAChRs in VTA dopamine neurons; type: cell-based; details: 100 μM
T2 construct: expressed in transfected cells; host or cells: VTA dopamine neurons
Method: A dosage containing 100 μM THB6 compound was evaluated on human and mouse α4β2-nAChR-mediated currents. FIG. 10A provides a graph of traces of ACh-induced whole-cell currents in human α4β2-nAChRs transfected in human SH-EP1 cells. FIG. 10B provides a graph of traces of ACh-induced whole-cell currents in mouse α4β2-nAChRs transfected in VTA dopamine neurons. […] FIGS. 10C and 10D provide bar graphs showing the statistic result that THB6 inhibits both peak and steady-state compounds of ACh-induced currents. Each bar in the bar graph of FIG. 10C represents the mean from 4 cells and vertical bars indicate +SE. A ^“*” was given to indicate p<0.05. A ^“***” was given to indicate p<0.001 in FIG. 9C. Data was analyzed with One-Way ANOVA.

VTA DA neurons [5] = assay: Action potential firing in mouse VTA slices, cell-attached patch recording; type: cell-based
Method: Based on the evaluation of a dosage containing THB6 compounds on VTA slices, it was determined that THB6 prevents nicotine-induced firing rate increase in VTA DA neurons. […] FIG. 11B is a bar graph showing the statistical result of the normalized firing rate of THB6 compounds.

VTA DA neurons [6] = assay: Extracellular single unit recording of VTA DA neuron firing in anesthetized mice; type: in vivo, mouse
Method: The effect of systemic injection of THB6 on mouse VTA DA neuron firing was evaluated by applying 10 mg/kg via an IV to anesthetized mice and extracellular single unit recordings were performed. FIG. 12A provides an image of the VTA slice, showing the recording electrode track and recording site after the experiment. The location of the recording electrode track is depicted in FIG. 12B.

mice = assay: Mouse locomotor activity after systemic injection; type: in vivo
Text: Systemic injection of dosages containing THB6 to mice and the mice's locomotive activity was studied.

rat α4β2-nAChRs = biological target: T3, rat α4β2-nAChRs (Rattus norvegicus, UniProt P09483+P12390); assay: Whole-cell currents of rat α4β2-nAChRs natively expressed in VTA DA neurons; type: cell-based; details: 30 μM, without pretreatment
T3 construct: rat α4β2-nAChRs natively expressed in VTA DA neurons; endogenous in cells; host or cells: rat VTA dopamine neurons
Method: as §1

VTA DA neurons [7] = assay: In vivo VTA DA neuronal firing in anesthetized rats; set-up: species or system rat
Method: It was tested whether systemic injection of THB affected VTA DA neuron firing. As shown in FIGS. 6A-6C, injection of THB (1 mg/kg, i.v.) increased VTA DA neuron firing rate, bursting fraction (FIG. 6A), and slow oscillations (FIGS. 6B-6D). […] THB appears to eliminate nicotinic effect via its blockade of nAChRs. Therefore, the actions of THB are consistent with the double target hypothesis that THB blocks nAChRs (especially α4β2-nAChRs) and enhances DA release from VTA to DA neuronal targets.

[8] = 1 mg/kg, i.v., anesthetized rats

COc1cc2c(cc1OC)[C@@H]1Cc3ccc(OC)c(OC)c3CN1CC2 [/-THP, /-tetrahydropalmatine]
ACh-induced currents, peak current component (human α4β2-nAChR [1]; SH-EP1 cells): only mildly reduced | ACh-induced currents, steady-state component (human α4β2-nAChR [1]; SH-EP1 cells): suppressed | 1 mM ACh-induced whole-cell currents (human α4β2-nAChR [1]; 30 μM, SH-EP1 cells): dramatically eliminated | IC50 (human α4β2-nAChR [1]; co-application with 1 mM ACh, SH-EP1 cells, n=8, read-out: IC50 value for current net charge): 5.2 µM | Hill coefficient (human α4β2-nAChR [1]; co-application with 1 mM ACh, current net charge): 0.4 | nicotine-induced enhancement of mEPSCs (VTA DA neurons [2]; 10 μM co-applied with 1 μM nicotine): abolished | nicotine rewarding effects after CPP has been established (male C57BL/6 mice; 10 mg/Kg i.p. 5 min before nicotine 1.5 mg/Kg): counteracts

/-stepholidine [/-SPD]
ACh-induced currents, peak current component (human α4β2-nAChR [1]; SH-EP1 cells): only mildly reduced | ACh-induced currents, steady-state component (human α4β2-nAChR [1]; SH-EP1 cells): suppressed | 1 mM ACh-induced whole-cell currents (human α4β2-nAChR [1]; 30 μM, SH-EP1 cells): dramatically eliminated | affinity in H-EBDN binding competition (human α4β2-nAChR [3]): lower affinity | IC50 (human α4β2-nAChR [4]; FIG. 2B, read-out: IC50 value, carbachol-induced 86Rb+ efflux response): 30 µM

COc1ccc2c(c1OC)CN1CCc3cc4oc(=O)oc4cc3C1C2 (centres unmarked) [THB6]
peak component of ACh-induced currents (human α4β2-nAChR [1]; 30 μM, with and without 1 min pretreatment, FIG. 9C): inhibiting | peak and steady-state components of ACh-induced currents, human α4β2-nAChRs (human α4β2-nAChR [1]; 100 μM, SH-EP1 cells): inhibits | peak and steady-state components of ACh-induced currents, mouse α4β2-nAChRs (mouse α4β2-nAChRs): inhibits | DA neuronal firing, compound alone (VTA DA neurons [5]): did not affect | nicotine-induced firing increase (VTA DA neurons [5]): prevented | neuronal firing rate, compound alone (VTA DA neurons [6]; 10 mg/kg IV, anesthetized mice): did not affect | nicotine-induced increase of firing rate (VTA DA neurons [6]; 10 mg/kg IV, anesthetized mice): prevented | nicotine-induced increase of locomotor activity (mice; pretreatment): prevented | locomotor activity, compound alone (mice; systemic injection): did not alter

CN1CCCC1c1cccnc1 (centres unmarked) [nicotine]
mEPSC amplitude (VTA DA neurons [2]; FIG. 5D): did not affect | mEPSC frequency (VTA DA neurons [2]; bath application of 1 μM): significantly increased | conditioned place preference (male C57BL/6 mice; 1.5 mg/Kg): induced significant CPP | neuronal firing rate at 2 minutes after injection (VTA DA neurons [6]; systemic injection, back to normal level after 8 minutes): increases

COc1ccc2c(c1OC)CN1CCc3cc4c(cc3C1C2)OCO4 (centres unmarked) [THB, tetrahydroberberine]
ACh-induced currents, peak current component (human α4β2-nAChR [1]; SH-EP1 cells): only mildly reduced | ACh-induced currents, steady-state component (human α4β2-nAChR [1]; SH-EP1 cells): suppressed | 1 mM ACh-induced whole-cell currents (human α4β2-nAChR [1]; 30 μM, SH-EP1 cells): dramatically eliminated | human α4β2-nAChR function (ACh-induced currents) (human α4β2-nAChR [1]; 30 μM, without pretreatment): inhibited | IC50 (human α4β2-nAChR [1]; IC50 value of Ip (peak current), 1 mM ACh-induced whole-cell currents, SH-EP1 cells): 2.2 µM | IC50 (human α4β2-nAChR [1]; IC50 value of Is (steady-state current), 1 mM ACh-induced whole-cell currents, SH-EP1 cells): 37 µM | affinity in H-EBDN binding competition (human α4β2-nAChR [3]): high affinity | IC50 (human α4β2-nAChR [4]): 7 µM | rat α4β2-nAChR function (ACh-induced currents) (rat α4β2-nAChRs): inhibited | VTA DA neuron bursting fraction (VTA DA neurons [7]; [8]): increased | VTA DA neuron firing rate (VTA DA neurons [7]; [8]): increased | VTA DA neuron slow oscillations (VTA DA neurons [7]; [8]): increased | effect of nicotine on VTA DA firing rate and bursting fraction after THB (VTA DA neurons [7]; nicotine 0.5 mg/kg i.v. 5 min after THB injection): failed to increase
